Experimental data reported in patent US5563155A, “Individual stereosiomers of 7-[3-(aminoalkyl)-1-pyrrolidinyl]-quinolones and naphthyridones as antibacterial agents” (Warner-Lambert Company, priority 1995, dated 1996).
≈ marks a conversion by molar mass, not a printed value. Counter-ions that a name gives are not always drawn. Like-named read-outs stand apart in the source and are kept apart here.

How the values were obtained:
Ent. cloacae MA2646 = test: in vitro antibacterial activity, microtitration dilution (MIC), Ent. cloacae MA2646; format: cell-based; conditions: Enterobacter cloacae, read-out: minimum inhibiting concentration (MIC)
From the text: (§1) The in vitro antibacterial activity, is obtained by the microtitration dilution method as described in Heifetz, et al., Antimicr. Agents & Chemother., 6, 124 (1974), which is incorporated herein by reference.
(§2) By use of the above methods, the following minimum inhibiting concentration values (MICs in μg/mL), PD50 's in mg/kg, no effect phototoxicity dose in mg/kg and the cytotoxicity IC50 in μg/mL were obtained for representative enantiomers of the invention and compounds of the prior art as shown in the table.

Esch. coli Vogel [1] = test: in vitro antibacterial activity, microtitration dilution (MIC), Esch. coli Vogel; format: cell-based; conditions: Escherichia coli, read-out: minimum inhibiting concentration (MIC)
From the text: as §1, §2

Klebs. pneumoniae MGH-2 = test: in vitro antibacterial activity, microtitration dilution (MIC), Klebs. pneumoniae MGH-2; format: cell-based; conditions: Klebsiella pneumoniae, MGH2, read-out: minimum inhibiting concentration (MIC)
From the text: as §1, §2

Prot. rettgeri M 1771 = test: in vitro antibacterial activity, microtitration dilution (MIC), Prot. rettgeri M 1771; format: cell-based; conditions: Providencia rettgeri, M1771, read-out: minimum inhibiting concentration (MIC)
From the text: as §1, §2

Pseud. aeruginosa UI-18 = test: in vitro antibacterial activity, microtitration dilution (MIC), Pseud. aeruginosa UI-18; format: cell-based; conditions: Pseudomonas aeruginosa, UI18, read-out: minimum inhibiting concentration (MIC)
From the text: as §1, §2

Staph. aureus H 228 = test: in vitro antibacterial activity, microtitration dilution (MIC), Staph. aureus H 228; format: cell-based; conditions: Staphylococcus aureus, H228, read-out: minimum inhibiting concentration (MIC)
From the text: as §1, §2

Staph. aureus UC-76 = test: in vitro antibacterial activity, microtitration dilution (MIC), Staph. aureus UC-76; format: cell-based; conditions: Staphylococcus aureus, UC76, read-out: minimum inhibiting concentration (MIC)
From the text: as §1, §2

Strep. faecalis MGH-2 = test: in vitro antibacterial activity, microtitration dilution (MIC), Strep. faecalis MGH-2; format: cell-based; conditions: Enterococcus faecalis, MGH2, read-out: minimum inhibiting concentration (MIC)
From the text: as §1, §2

Strep. pheumoniae SV-1 = test: in vitro antibacterial activity, microtitration dilution (MIC), Strep. pneumoniae SV-1; format: cell-based; conditions: Streptococcus pneumoniae, SV1, read-out: minimum inhibiting concentration (MIC)
From the text: as §1, §2

Strep. pyogenes C-203 [2] = test: in vitro antibacterial activity, microtitration dilution (MIC), Strep. pyogenes C-203; format: cell-based; conditions: Streptococcus pyogenes, C203, read-out: minimum inhibiting concentration (MIC)
From the text: as §1, §2

Esch. coli Vogel [3] = test: median protective dose in mice given lethal systemic infections, Esch. coli Vogel; format: in vivo; conditions: Escherichia coli, single dose at time of challenge, read-out: median protective dose (PD50)
Experimental: (§3) The in vivo activity is obtained when the compounds are tested according to the procedure of Miller, et al (Proc. Soc. Exp. Biol. Med. 57, 261, 1944). The median protective dose (PD50) was determined in mice given lethal systemic infections. Single doses of compound were given at time of challenge.
as §2
(§4) The in vivo data as PD50 s are reported below the line of MICs for the same compound.

Strep. pyogenes C-203 [4] = test: median protective dose in mice given lethal systemic infections, Strep. pyogenes C-203; format: in vivo; conditions: Streptococcus pyogenes, single dose at time of challenge, read-out: median protective dose (PD50)
Experimental: as §3, §2, §4

[5] = cytotoxicity, hamster V-79 cells, colony reduction; format: cell-based; conditions: 3 hours treatment, colonies counted after 5 days, read-out: Cytotox (cytotoxicity IC50)
Experimental: The cytotoxicity data is obtained using hamster V-79 cells. The cells were suspended in tissue culture medium and grown overnight. Cells were treated with drug for 3 hours, washed free of drug and then replated, and the colonies counted after 5 days. The concentration of drug that reduced colones by 50% relative to control was recorded.
as §2

SMILES	MIC (Ent. cloacae MA2646) [µg/mL]	MIC (Esch. coli Vogel [1]) [µg/mL]	MIC (Klebs. pneumoniae MGH-2) [µg/mL]	MIC (Prot. rettgeri M 1771) [µg/mL]	MIC (Pseud. aeruginosa UI-18) [µg/mL]	MIC (Staph. aureus H 228) [µg/mL]	MIC (Staph. aureus UC-76) [µg/mL]	MIC (Strep. faecalis MGH-2) [µg/mL]	MIC (Strep. pheumoniae SV-1) [µg/mL]	MIC (Strep. pyogenes C-203 [2]) [µg/mL]	ED50 (Esch. coli Vogel [3]; PO) [mg/kg]	ED50 (Esch. coli Vogel [3]; SC) [mg/kg]	ED50 (Strep. pyogenes C-203 [4]; C203, PO) [mg/kg]	ED50 (Strep. pyogenes C-203 [4]; C203, SC) [mg/kg]	CC50 at 3 h [5] [µg/mL]
CCN[C@H](C)[C@H]1CCN(c2nc3c(cc2F)c(=O)c(C(=O)O)cn3C2CC2)C1 [Example 79, 3S,1R-1-cyclopropyl-7-[3-[1-(ethylamino)ethyl]-1-pyrrolidinyl]-6-fluoro-1,4-dihydro-4-oxo-1,8-naphthyridine-3-carboxylic acid]	0.1 (≈ 0.257 µM)	0.1 (≈ 0.257 µM)	0.2 (≈ 0.515 µM)	0.8 (≈ 2.06 µM)	1.6 (≈ 4.12 µM)	0.1 (≈ 0.257 µM)	0.025 (≈ 0.0644 µM)	0.05 (≈ 0.129 µM)	0.025 (≈ 0.0644 µM)	0.05 (≈ 0.129 µM)	2	1	2	2	
CCOc1c(N2CC[C@@H]([C@H](C)NC)C2)c(F)cc2c(=O)c(C(=O)O)cn(C3CC3)c12 [Example 57, 3R,1S-1-cyclopropyl-8-ethoxy-6-fluoro-1,4-dihydro-7-[3-(1-N-methylaminoethyl)-1-pyrrolidinyl]-4-oxo-3-quinolinecarboxylic acid]	0.4 (≈ 0.958 µM)	0.4 (≈ 0.958 µM)	0.4 (≈ 0.958 µM)	0.8 (≈ 1.92 µM)	3.1 (≈ 7.43 µM)	0.025 (≈ 0.0599 µM)	0.013 (≈ 0.0311 µM)	0.05 (≈ 0.12 µM)	0.025 (≈ 0.0599 µM)	0.025 (≈ 0.0599 µM)					220 (≈ 527 µM)
CN[C@@H](C)[C@@H]1CCN(c2nc3c(cc2F)c(=O)c(C(=O)O)cn3C2CC2)C1 [Example 21, 3R,1S-1-cyclopropyl-6-fluoro-7-[3-(1-N-methylaminoethyl)-1-pyrrolidinyl]-1,4-dihydro-4-oxo-1,8-naphthyridine-3-carboxylic acid]	0.1 (≈ 0.267 µM)	0.1 (≈ 0.267 µM)	0.2 (≈ 0.534 µM)	0.4 (≈ 1.07 µM)	1.6 (≈ 4.27 µM)	0.05 (≈ 0.134 µM)	0.0013 (≈ 0.00347 µM)	0.05 (≈ 0.134 µM)	0.013 (≈ 0.0347 µM)	0.025 (≈ 0.0668 µM)	1	0.5	2	2	130 (≈ 347 µM)
CCN[C@@H](C)[C@@H]1CCN(c2nc3c(cc2F)c(=O)c(C(=O)O)cn3C2CC2)C1 [Example 78, 3R,1S-1-cyclopropyl-7-[3-[1-(ethylamino)ethyl]-1-pyrrolidinyl]-6-fluoro-1,4-dihydro-4-oxo-1,8-naphthyridine-3-carboxylic acid]	0.4 (≈ 1.03 µM)	0.1 (≈ 0.257 µM)	0.2 (≈ 0.515 µM)	1.6 (≈ 4.12 µM)	1.6 (≈ 4.12 µM)	0.05 (≈ 0.129 µM)	0.025 (≈ 0.0644 µM)	0.05 (≈ 0.129 µM)	0.025 (≈ 0.0644 µM)	0.05 (≈ 0.129 µM)			6	4	
C[C@@H](N)[C@@H]1CCN(c2nc3c(cc2F)c(=O)c(C(=O)O)cn3-c2ccc(F)cc2F)C1 [Example 48, 3R,1R-7-[3-(1-aminoethyl)-1-pyrrolidinyl]-1-(2,4-difluorophenyl)-6-fluoro-1,4-dihydro-1,8-naphthyridine-3-carboxylic acid]	0.1 (≈ 0.231 µM)	0.1 (≈ 0.231 µM)	0.2 (≈ 0.463 µM)	0.4 (≈ 0.925 µM)	1.6 (≈ 3.7 µM)	0.1 (≈ 0.231 µM)	0.025 (≈ 0.0578 µM)	0.1 (≈ 0.231 µM)	0.05 (≈ 0.116 µM)	0.05 (≈ 0.116 µM)			9	3	
CN[C@H](C)[C@@H]1CCN(c2nc3c(cc2F)c(=O)c(C(=O)O)cn3C2CC2)C1 [Example 22, 3R,1R-1-cyclopropyl-6-fluoro-7-[3-(1-N-methylaminoethyl)-1-pyrrolidinyl]-1,4-dihydro-4-oxo-1,8-naphthyridine-3-carboxylic acid]	0.1 (≈ 0.267 µM)	0.1 (≈ 0.267 µM)	0.2 (≈ 0.534 µM)	0.4 (≈ 1.07 µM)	1.6 (≈ 4.27 µM)	0.1 (≈ 0.267 µM)	0.05 (≈ 0.134 µM)	0.025 (≈ 0.0668 µM)	0.05 (≈ 0.134 µM)	0.05 (≈ 0.134 µM)	4.6	1.2	8	5	88 (≈ 235 µM)
Cc1c(F)c(N2CC[C@@H]([C@H](C)N)C2)cc2c1c(=O)c(C(=O)O)cn2-c1ccc(F)cc1F [Example 65, 3R,1S-7-[3-(1-aminoethyl)-1-pyrrolidinyl]-1-(2,4-difluorophenyl)-6-fluoro-1,4-dihydro-5-methyl-4-oxo-3-quinolinecarboxylic acid, monohydrochloride]	0.1	0.1	0.2	0.4	0.8	0.013	0.006	0.025	0.003	0.003			5	0.6	10
CCN[C@@H](C)[C@@H]1CCN(c2c(F)c(N)c3c(=O)c(C(=O)O)cn(C4CC4)c3c2F)C1 [Example 53, 3R,1S-5-amino-1-cyclopropyl-7-[3-(1-N-ethylaminoethyl)-1-pyrrolidinyl]-6,8-difluoro-1,4-dihydro-4-oxo-3-quinolinecarboxylic acid]	0.025 (≈ 0.0595 µM)	0.025 (≈ 0.0595 µM)	0.05 (≈ 0.119 µM)	0.1 (≈ 0.238 µM)	0.8 (≈ 1.9 µM)	≤ 0.003	≤ 0.003	0.013 (≈ 0.0309 µM)	≤ 0.003	≤ 0.003	1.6	0.8	0.3	0.3	
CN[C@H](C)[C@H]1CCN(c2c(F)cc3c(=O)c(C(=O)O)cn(C4CC4)c3c2OC)C1 [Example 38, 3S,1R-1-cyclopropyl-6-fluoro-7-[3-(1-N-methylaminoethyl)-1-pyrrolidinyl]-8-methoxy-1,4-dihydro-4-oxo-3-quinolinecarboxy acid]	0.2 (≈ 0.496 µM)	0.2 (≈ 0.496 µM)	0.4 (≈ 0.991 µM)	0.8 (≈ 1.98 µM)	3.1 (≈ 7.68 µM)	0.05 (≈ 0.124 µM)	0.013 (≈ 0.0322 µM)	0.05 (≈ 0.124 µM)	0.025 (≈ 0.062 µM)	0.025 (≈ 0.062 µM)			6	1	130 (≈ 322 µM)
